Target: T1, Human Mineralocorticoid Receptor (hMR) (Homo sapiens, UniProt P08235)
T1 construct: Full-length cDNA was constructed from two fragments of hMR cDNA amplified separately; expressed in transfected cells; host or cells: FreeStyle 293 cells transiently transfected with pMCMVneo-hMR; supernatant of the freeze-thaw lysate after ultracentrifugation
T1 sequence (P08235 1-984): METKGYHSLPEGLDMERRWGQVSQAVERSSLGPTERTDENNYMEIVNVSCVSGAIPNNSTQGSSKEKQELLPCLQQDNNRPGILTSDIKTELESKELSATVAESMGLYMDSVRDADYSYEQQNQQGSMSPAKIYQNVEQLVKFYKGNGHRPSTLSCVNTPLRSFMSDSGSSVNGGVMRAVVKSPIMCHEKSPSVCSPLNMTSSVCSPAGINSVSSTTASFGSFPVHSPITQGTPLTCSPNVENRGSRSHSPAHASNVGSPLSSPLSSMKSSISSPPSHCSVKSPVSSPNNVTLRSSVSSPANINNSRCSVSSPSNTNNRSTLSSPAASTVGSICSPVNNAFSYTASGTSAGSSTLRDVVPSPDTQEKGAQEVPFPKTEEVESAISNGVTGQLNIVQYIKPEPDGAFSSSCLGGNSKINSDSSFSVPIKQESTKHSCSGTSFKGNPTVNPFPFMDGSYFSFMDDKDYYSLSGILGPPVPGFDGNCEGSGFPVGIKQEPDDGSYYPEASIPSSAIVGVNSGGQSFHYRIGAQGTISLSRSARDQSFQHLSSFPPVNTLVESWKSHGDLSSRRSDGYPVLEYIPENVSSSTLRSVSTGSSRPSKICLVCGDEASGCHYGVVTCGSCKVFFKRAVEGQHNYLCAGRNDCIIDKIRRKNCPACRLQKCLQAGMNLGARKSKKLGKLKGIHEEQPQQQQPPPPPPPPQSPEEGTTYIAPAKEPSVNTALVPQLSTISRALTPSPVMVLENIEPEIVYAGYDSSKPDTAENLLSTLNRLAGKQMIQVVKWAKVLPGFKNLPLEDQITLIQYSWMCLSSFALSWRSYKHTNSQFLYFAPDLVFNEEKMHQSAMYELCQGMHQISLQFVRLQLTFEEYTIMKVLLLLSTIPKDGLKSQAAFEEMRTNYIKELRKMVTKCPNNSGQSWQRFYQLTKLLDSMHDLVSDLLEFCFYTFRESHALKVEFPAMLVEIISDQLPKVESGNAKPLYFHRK
Experiment: Inhibition of binding of [3H]-aldosterone to hMR (lysate of FreeStyle 293 cells expressing hMR)
Conditions: compound at 10^−5 M; 10 nM [3H]-aldosterone; hMR lysate 1.0 mg/ml; 16 hr at 4° C.; read-out: Inhibition rate (at 10^−5 M)
Description: The following procedures described in this Example were carried out according to the methods described in Molecular Cloning—Cold Spring Harbor Laboratory (1989) or protocols specified by manufacturers. (1) Cloning of Human Mineralocorticoid Receptor (hMR) cDNA hMR cDNA was amplified by polymerase chain reaction (PCR) from human kidney cDNA library. Full-length cDNA was constructed from two fragments of hMR cDNA amplified separately. The primers were designed referring to the nucleotide sequence of hMR cDNA reported by Arriza et. al (Science 1987; 237: 268-275). The PCR reactions were carried out using Pyrobest® DNA polymerase (Takara). The PCR products were electrophoresed in agarose gel, and 1.7 kb (region (i)) and 1.5 kb (region (ii)) DNA fragments were recovered. Each DNA fragment was inserted into pCR®4Blunt-TOPO® vector (Invitrogen). The resulting plasmids thus obtained were designated as pB-hMR (i) and pB-hMR (ii). To obtain the full-length hMR cDNA, pB-hMR (i) was digested with XhoI and PvuI, and pB-hMR (ii) was digested with PvuI and KpnI, respectively, and the two cDNA fragments were ligated into pBlueScript®IISK+ vector (Stratagene). The resulting plasmid thus obtained was designated as pB-hMR. (2) Construction of hMR Expression Plasmid pMCMVneo (described in WO03/099793) was digested with XhoI and KpnI, and 5.6 kb fragment was ligated with 2.9 kb hMR cDNA fragment obtained by digestion of pB-hMR (described in above (1)) with XhoI and KpnI. The plasmid thus obtained was designated as pMCMVneo-hMR. (3) Expression of hMR in FreeStyle 293 Cells and Preparation of Cell Lysate FreeStyle 293 cells were inoculated at 1×10^8 cells in 93 ml FreeStyle™ 293 Expression Medium (Invitrogen) in a 500 ml Erlenmeyer flask and cultured at 37° C. under 8% CO2 for 1 hr. The cells were treated with 6.7 ml of the transfection mixture containing 100 μg of pMCMVneo-hMR obtained in above (2) and 133 μl of FreeStyle™ 293 Transfection Reagent (Invitrogen). The transfected cells were cultivated for 48 hr at 37° C. in 8% CO2 atmosphere. The cultivated cells were centrifuged and washed with TEG buffer (10 mM Tris-HCl (pH 7.2), 50 mM EDTA, 10% glycerol), and resuspended in 10 ml TEGM buffer (10 mM Tris-HCl (pH 7.2), 1 mM EDTA, 10% glycerol, 1 mM β-mercaptoethanol, 10 mM sodium molybdate, 1 mM dithiothreitol, 2 tablets/100 ml of protease inhibitor cocktail tablets (Roche)). The cell suspension was frozen with liquid nitrogen and thawed on ice, and ultra-centrifuged at 225,000×g for 20 min at 4° C. The supernatant fraction including hMR (hMR lysate) was collected and stored at −80° C. (4) Measurement of Inhibition Activity Against Binding of hMR and Aldosterone [^3H]-Aldosterone (Amersham Biosciences) as ligand was added at 10 nM to the reaction mixture including test compound at various concentration and hMR lysate (1.0 mg/ml) obtained in above (3) and mixture was filled up to 50.5 μl with TEGM buffer. The reaction mixture was incubated for 16 hr at 4° C. and 35 μl of dextran/gelatin coated charcoal suspension (5% charcoal, 0.5% dextran T-70 (Amersham Biosciences), 0.1% gelatin (SIGMA), 10 mM Tris HCl (pH 7.2), 1 mM EDTA) was added thereto to separate bound and free radioactive aldosterone. The mixture containing charcoal was incubated for 10 min at 4° C. and centrifuged at 910×g for 10 min at 4° C. Radioactivity in 30 μl of the supernatant was measured by TopCount™ (Packard). For the determination of nonspecific binding, cold Aldosterone instead of drug was added to reaction mixture at 100 μM. Specific binding was determined by subtracting nonspecific binding from total binding.

SMILES	inhibition at 10 µM [%]
Cc1cc(F)ccc1-n1nc(C(C)(F)F)cc1-c1cc(C)c2c(c1)NC(=O)CO2 [Example 310, 6-(3-(1,1-Difluoroethyl)-1-(4-fluoro-2-methylphenyl)-1H-pyrazol-5-yl)-8-methyl-2H-benzo[b][1,4]oxazin-3(4H)-one]	≥ 70
O=C1COc2ccc(C3=Nn4cnnc4SC3c3ccc(F)cc3)cc2N1 (centres unmarked) [Example 35, 6-[7-(4-Fluorophenyl)-7H-[1,2,4]triazolo[3,4-b][1,3,4]thiadiazin-6-yl]-2H-1,4-benzoxazin-3(4H)-one]	≥ 70
O=C1COc2ccc(C3=Nc4ccccc4OC3c3ccccc3)cc2N1 (centres unmarked) [Example 18, 2-Phenyl-2H,2′H-3,6′-bi-1,4-benzoxazin-3′(4′H)-one]	≥ 70
NC1=NC=C(c2ccc3c(c2)NC(=O)CO3)C(c2ccccc2)S1 (centres unmarked) [Example 24, 6-(2-amino-6-phenyl-6H-1,3-thiazin-5-yl)-2H-1,4-benzoxazin-3(4H)-one]	≥ 70
Cc1cc(F)ccc1-n1nc(C(F)(F)F)cc1-c1cc(F)c2c(c1)NC(=O)CO2 [Example 108, 8-fluoro-6-(1-(4-fluoro-2-methylphenyl)-3-(trifluoromethyl)-1H-pyrazol-5-yl)-2H-benzo[b][1,4]oxazin-3(4H)-one]	≥ 70
O=C1COc2ccc(C3=C(c4ccc(F)cc4)C(=O)N(c4ccc(F)cc4)C3)cc2N1 [Example 70, 6-(1,4-Bis(4-fluorophenyl)-5-oxo-2,5-dihydro-1H-pyrrol-3-yl)-2H-benzo[b][1,4]oxazin-3(4H)-one]	≥ 70
O=C1COc2ccc(C3=C(c4ccc(F)cc4)C(=O)N(c4ccccc4)C3=O)cc2N1 [Example 65, 3-(4-fluorophenyl)-4-(3-oxo-3,4-dihydro-2H-benzo[b][1,4]oxazin-6-yl)-1-phenyl-1H-pyrrole-2,5-dione]	≥ 70
Cc1cc(F)ccc1-n1nc(C(F)(F)F)cc1-c1ccc2c(c1)NC(=O)CO2 [Example 107, 6-(1-(4-fluoro-2-methylphenyl)-3-(trifluoromethyl)-1H-pyrazol-5-yl)-2H-benzo[b][1,4]oxazin-3(4H)-one]	≥ 70
O=C1COc2c(F)cc(C3=Nn4cnnc4SC3c3ccc(F)cc3)cc2N1 (centres unmarked) [Example 195, 8-fluoro-6-[7-(4-fluorophenyl)-7H-[1,2,4]triazolo[3,4-b][1,3,4]thiadiazin-6-yl]-2H-1,4-benzoxazin-3(4H)-one]	≥ 70
Cc1ccccc1-n1nc(C(F)(F)F)cc1-c1ccc2c(c1)NC(=O)CO2 [Example 82, 6-(1-o-tolyl-3-(trifluoromethyl)-1H-pyrazol-5-yl)-2H-benzo[b][1,4]oxazin-3(4H)-one]	≥ 70
CS(=O)(=O)N1CC(c2ccccc2)C(c2ccc3c(c2)NC(=O)CO3)=N1 (centres unmarked) [Example 59, 6-(1-(Methylsulfonyl)-4-phenyl-4,5-dihydro-1H-pyrazol-3-yl)-2H-benzo[b][1,4]oxazin-3(4H)-one]	≥ 70
O=C1COc2ccc(C3=Cc4ccccc4SC3c3ccccn3)cc2N1 (centres unmarked) [Example 44, 6-(2-Pyridin-2-yl-2H-thiochromen-3-yl)-2H-1,4-benzoxazin-3(4H)-one]	≥ 70
N#Cc1ccc2c(c1)SC(c1ccccc1)C(c1ccc3c(c1)NC(=O)CO3)=C2 (centres unmarked) [Example 130, 3-(3-oxo-3,4-dihydro-2H-1,4-benzoxazin-6-yl)-2-phenyl-2H-thiochromene-7-carbonitrile]	≥ 70
O=C1COc2ccc(C3=NN(CC(F)(F)F)CC3c3ccccc3)cc2N1 (centres unmarked) [Example 53, 6-(4-Phenyl-1-(2,2,2-trifluoroethyl)-4,5-dihydro-1H-pyrazol-3-yl)-2H-benzo[b][1,4]oxazin-3(4H)-one]	≥ 70
Cc1cc(Cl)ccc1-n1nc(C(F)(F)F)cc1-c1ccc2c(c1)NC(=O)CO2 [Example 86, 6-(1-(4-chloro-2-methylphenyl)-3-(trifluoromethyl)-1H-pyrazol-5-yl)-2H-benzo[b][1,4]oxazin-3(4H)-one]	≥ 70
Cc1ccc(C)c(-n2nc(C(F)(F)F)cc2-c2ccc3c(c2)NC(=O)CO3)c1 [Example 93, 6-(1-(2,5-dimethylphenyl)-3-(trifluoromethyl)-1H-pyrazol-5-yl)-2H-benzo[b][1,4]oxazin-3(4H)-one]	≥ 70
O=C1COc2ccc(C3=Nn4ccnc4SC3c3ccccc3)cc2N1 (centres unmarked) [Example 5, 6-(2-Phenyl-2H-imidazo[2,1-b][1,3,4]thiadiazin-3-yl)-2H-1,4-benzoxazin-3(4H)-one]	≥ 70
O=C1COc2ccc(C3=Cc4ccccc4SC3c3ccccc3)cc2N1 (centres unmarked) [Example 20, 6-(2-Phenyl-2H-thiochromen-3-yl)-2H-1,4-benzoxazin-3(4H)-one]	≥ 70
O=C1COc2ccc(C3=Cc4ccccc4SC3c3ccc(F)cc3)cc2N1 (centres unmarked) [Example 158, 6-[2-(4-fluorophenyl)-2H-thiochromen-3-yl]-2H-1,4-benzoxazin-3(4H)-one]	≥ 70
O=C1COc2ccc(C3=Nn4cnnc4SC3c3ccccc3)cc2N1 (centres unmarked) [Example 3, 6-(7-phenyl-7H-[1,2,4]triazolo[3,4-b][1,3,4]thiadiazin-6-yl)-2H-1,4-benzoxazin-3(4H)-one]	≥ 70
CCCC1Sc2nncn2N=C1c1ccc2c(c1)NC(=O)CO2 (centres unmarked) [Example 31, 6-(7-Propyl-7H-[1,2,4]triazolo[3,4-b][1,3,4]thiadiazin-6-yl)-2H-1,4-benzoxazin-3(4H)-one]	≥ 70
O=C1COc2ccc(-c3cc(C(F)(F)F)nn3-c3ccccc3)cc2N1 [Example 96, 6-(1-Phenyl-3-(trifluoromethyl)-1H-pyrazol-5-yl)-2H-benzo[b][1,4]oxazin-3(4H)-one]	≥ 70
O=C1COc2ccc(C3=NN(c4ccc(F)cc4)CC3c3ccccc3)cc2N1 (centres unmarked) [Example 49, 6-(1-(4-Fluorophenyl)-4-phenyl-4,5-dihydro-1H-pyrazol-3-yl)-2H-benzo[b][1,4]oxazin-3(4H)-one]	≥ 70

— US20090253687A1, “Fused Heterocyclic Compounds and Their Use as Mineralocorticoid Receptor Ligands” (priority 2005, published 2009)
